Activity calls are given as the source filed them. No cut-off for these calls is given here. Where a SMILES comes first, the peptide text is derived from it. Bridges are numbered along the chain shown (N, C = ends).
How the values were obtained:
Toll-like receptor 4 [1] = target: T1, Toll-like receptor 4 (Homo sapiens, UniProt O00206); test: Binding affinity to recombinant human TLR4 using phage displayed compound by Phage-ELISA
[2] = target: T2, Toll-like receptor 4 (Mus musculus) (UniProt Q9QUK6); test: Antagonist activity at TLR4 in mouse RAW264.7 cells assessed as reduction in LPS-induced TNFalpha secretion after 24 hrs by ELISA; type: cell-based
T2 sequence (whole entry): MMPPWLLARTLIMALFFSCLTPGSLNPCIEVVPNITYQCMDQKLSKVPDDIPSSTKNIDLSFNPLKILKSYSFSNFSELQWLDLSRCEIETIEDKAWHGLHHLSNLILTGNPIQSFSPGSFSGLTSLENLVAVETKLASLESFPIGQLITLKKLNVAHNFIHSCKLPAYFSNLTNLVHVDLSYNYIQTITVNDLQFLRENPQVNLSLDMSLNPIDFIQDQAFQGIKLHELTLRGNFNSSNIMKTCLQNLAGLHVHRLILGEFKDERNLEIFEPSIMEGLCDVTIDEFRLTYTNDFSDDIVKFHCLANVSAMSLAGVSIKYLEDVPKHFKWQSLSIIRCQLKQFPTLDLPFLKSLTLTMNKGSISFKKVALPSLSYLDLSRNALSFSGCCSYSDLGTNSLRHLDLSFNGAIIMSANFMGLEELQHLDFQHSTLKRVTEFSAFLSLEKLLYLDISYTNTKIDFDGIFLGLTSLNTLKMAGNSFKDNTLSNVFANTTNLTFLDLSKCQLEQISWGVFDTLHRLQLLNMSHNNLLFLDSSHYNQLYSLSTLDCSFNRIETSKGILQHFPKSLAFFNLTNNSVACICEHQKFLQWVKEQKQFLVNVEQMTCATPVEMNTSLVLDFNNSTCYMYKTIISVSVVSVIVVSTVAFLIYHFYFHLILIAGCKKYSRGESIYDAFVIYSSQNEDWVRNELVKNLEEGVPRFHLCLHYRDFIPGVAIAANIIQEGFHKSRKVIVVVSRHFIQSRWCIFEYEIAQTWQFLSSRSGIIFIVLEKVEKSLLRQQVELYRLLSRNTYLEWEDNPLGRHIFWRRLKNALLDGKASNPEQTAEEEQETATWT

[3] = target: T2, Toll-like receptor 4 (Mus musculus); test: Antagonist activity at TLR4 in mouse RAW264.7 cells assessed as reduction in LPS-induced IL-6 secretion after 24 hrs by ELISA; type: cell-based
[4] = target: T3, Toll-like receptor 9 (Homo sapiens) (UniProt Q9NR96); test: Antagonist activity at TLR9 in human THP1 cells assessed as reduction in CpG ODN-induced IL6 secretion at 50 uM after 24 hrs by ELISA; type: cell-based
T3 sequence (whole entry): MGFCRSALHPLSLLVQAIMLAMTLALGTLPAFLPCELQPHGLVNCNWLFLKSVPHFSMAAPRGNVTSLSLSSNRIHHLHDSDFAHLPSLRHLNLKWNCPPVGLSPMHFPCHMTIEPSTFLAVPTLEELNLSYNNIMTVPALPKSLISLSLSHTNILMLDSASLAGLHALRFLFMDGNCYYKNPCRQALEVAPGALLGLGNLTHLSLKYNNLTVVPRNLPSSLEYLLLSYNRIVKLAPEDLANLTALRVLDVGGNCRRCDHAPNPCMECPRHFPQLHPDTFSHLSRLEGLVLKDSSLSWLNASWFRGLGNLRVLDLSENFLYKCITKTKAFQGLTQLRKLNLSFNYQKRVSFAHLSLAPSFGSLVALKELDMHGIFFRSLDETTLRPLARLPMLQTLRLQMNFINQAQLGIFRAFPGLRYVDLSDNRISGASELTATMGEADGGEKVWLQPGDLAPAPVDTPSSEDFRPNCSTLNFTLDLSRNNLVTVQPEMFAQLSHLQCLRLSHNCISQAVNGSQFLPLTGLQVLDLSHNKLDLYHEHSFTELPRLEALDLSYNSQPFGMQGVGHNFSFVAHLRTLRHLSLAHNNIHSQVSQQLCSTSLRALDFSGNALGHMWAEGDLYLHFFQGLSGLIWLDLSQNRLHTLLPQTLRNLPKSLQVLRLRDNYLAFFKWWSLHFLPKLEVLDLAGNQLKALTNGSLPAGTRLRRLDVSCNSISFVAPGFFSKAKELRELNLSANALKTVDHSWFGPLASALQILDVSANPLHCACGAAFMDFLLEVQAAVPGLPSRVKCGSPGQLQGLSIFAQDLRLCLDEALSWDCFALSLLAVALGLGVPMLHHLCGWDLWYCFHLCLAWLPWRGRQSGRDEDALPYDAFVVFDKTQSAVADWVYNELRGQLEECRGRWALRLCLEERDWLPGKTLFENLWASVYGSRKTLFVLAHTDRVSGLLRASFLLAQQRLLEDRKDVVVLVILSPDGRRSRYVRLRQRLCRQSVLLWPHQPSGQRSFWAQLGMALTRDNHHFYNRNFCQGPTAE

Toll-like receptor 4 [5] = target: T1, Toll-like receptor 4; test: Binding affinity to recombinant human TLR4 by surface plasmon resonance analysis
[6] = target: T2, Toll-like receptor 4 (Mus musculus); test: Antagonist activity at TLR4 in mouse RAW264.7 cells assessed as reduction in LPS-induced cytosolic ROS level at 50 uM by DCF-DA staining based FACS analysis; type: cell-based
[7] = target: Toll-like receptor 1/2 (Homo sapiens) (UniProt O60603+Q15399); test: Antagonist activity at TLR2/1 in human THP1 cells assessed as reduction in PAM3CSK4-induced IL6 secretion at 50 uM after 24 hrs by ELISA; type: cell-based
Toll-like receptor 4 [8] = target: T1, Toll-like receptor 4; test: Antagonist activity at TLR4 in human THP1 cells assessed as reduction in LPS-induced ERK phosphorylation at 50 uM after 15 to 30 mins by Western blot analysis; type: cell-based
Toll-like receptor 4 [9] = target: T1, Toll-like receptor 4; test: Antagonist activity at TLR4 in human THP1 cells assessed as reduction in LPS-induced ATF3 activation at 50 uM after 120 to 240 mins by Western blot analysis; type: cell-based
Rattus norvegicus = test: Antiarthritic activity in Lewis rat model of complete Freund's adjuvant-induced arthritis assessed as reduction in inflammation synovial tissues at 1 nmol/g administered intra-articularly into knee joint after 6 week by Safranin-O staining based histopathological analysis; type: functional, organism-based
Toll-like receptor 4 [10] = target: T1, Toll-like receptor 4; test: Antagonist activity at TLR4 (unknown origin)
Toll-like receptor 4 [11] = target: T1, Toll-like receptor 4; test: Antagonist activity at TLR4 (unknown origin) assessed as inhibition of proinflammatory cytokines
Toll-like receptor 4 [12] = target: T1, Toll-like receptor 4; test: Binding affinity to recombinant human TLR4 assessed as dissociation rate constant up to 200 uM by surface plasmon resonance analysis
[13] = target: T2, Toll-like receptor 4 (Mus musculus); test: Antagonist activity at TLR4 in mouse RAW264.7 cells assessed as reduction in LPS-induced NFkappaB p65 phosphorylation at 80 uM after 15 to 30 mins by Western blot analysis; type: cell-based
[14] = target: T2, Toll-like receptor 4 (Mus musculus); test: Antagonist activity at TLR4 in mouse RAW264.7 cells assessed as reduction in LPS-induced ATF3 activation at 80 uM after 120 to 240 mins by Western blot analysis; type: cell-based

T1 sequence (O00206 whole entry): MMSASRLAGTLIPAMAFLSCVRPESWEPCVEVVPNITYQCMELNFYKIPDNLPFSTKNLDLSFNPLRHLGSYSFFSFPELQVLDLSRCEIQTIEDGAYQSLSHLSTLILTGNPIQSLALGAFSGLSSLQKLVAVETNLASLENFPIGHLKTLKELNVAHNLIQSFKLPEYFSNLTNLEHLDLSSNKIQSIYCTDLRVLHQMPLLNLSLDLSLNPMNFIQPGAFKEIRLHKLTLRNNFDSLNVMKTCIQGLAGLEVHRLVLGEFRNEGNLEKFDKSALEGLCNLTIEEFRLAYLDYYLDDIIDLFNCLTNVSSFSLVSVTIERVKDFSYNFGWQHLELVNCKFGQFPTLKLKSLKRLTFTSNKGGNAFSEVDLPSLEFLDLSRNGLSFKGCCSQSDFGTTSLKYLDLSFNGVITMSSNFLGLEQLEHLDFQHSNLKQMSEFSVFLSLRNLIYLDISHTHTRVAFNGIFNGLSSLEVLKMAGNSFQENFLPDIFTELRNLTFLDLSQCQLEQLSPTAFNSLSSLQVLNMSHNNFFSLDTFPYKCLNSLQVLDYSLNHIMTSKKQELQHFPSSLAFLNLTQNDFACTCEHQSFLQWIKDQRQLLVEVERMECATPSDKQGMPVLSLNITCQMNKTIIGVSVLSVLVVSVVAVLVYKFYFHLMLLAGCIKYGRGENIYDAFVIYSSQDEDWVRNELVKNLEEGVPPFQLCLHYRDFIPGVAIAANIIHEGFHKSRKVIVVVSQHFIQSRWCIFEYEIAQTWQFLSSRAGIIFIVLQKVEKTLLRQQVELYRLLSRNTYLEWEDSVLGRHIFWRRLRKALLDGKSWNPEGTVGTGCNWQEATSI

## CC[C@H](C)[C@@H]1NC(=O)[C@H](Cc2c[nH]c3ccccc23)NC(=O)[C@H](Cc2c[nH]c3ccccc23)NC(=O)[C@@H](NC(=O)[C@H](CO)NC(=O)[C@H](Cc2ccccc2)NC(=O)[C@@H](NC(=O)CNC(=O)[C@@H](N)CC(C)C)C(C)C)CC(=O)NCCCC[C@@H](C(=O)N[C@@H](CC(C)C)C(=O)N[C@H](C(=O)O)C(C)C)NC1=O (H-LGVFSDWWIKLV-OH; lactam 6-10)
Toll-like receptor 4 [1]
  Activity: Active
[2]
  Activity: Dose-dependent effect
[3]
  Activity: Dose-dependent effect
[4]
  Activity: Active
Toll-like receptor 4 [5]
  Activity: Dose-dependent effect
[6]
  Activity: Active
[7]
  Activity: Active
Toll-like receptor 4 [8]
  Activity: Active
Toll-like receptor 4 [9]
  Activity: Active
Rattus norvegicus
  Activity: Active
Toll-like receptor 4 [10]
  IC50: 25 µM
Toll-like receptor 4 [11]
  IC50: 5 µM
Toll-like receptor 4 [12]
  koff: 0.0014 s⁻¹

## H-LGVFSSWWIKLV-OH
Toll-like receptor 4 [1]
  Activity: Active
[2]
  Activity: Dose-dependent effect
[13]
  Activity: Active
[14]
  Activity: Active
[3]
  Activity: Dose-dependent effect
Toll-like receptor 4 [5]
  Activity: Dose-dependent effect
Toll-like receptor 4 [10]
  IC50: 40 µM
Toll-like receptor 4 [11]
  IC50: 20 µM
Toll-like receptor 4 [12]
  koff: 0.0113 s⁻¹

Reference: ChEMBL document CHEMBL4359843, “Linear and Rationally Designed Stapled Peptides Abrogate TLR4 Pathway and Relieve Inflammatory Symptoms in Rheumatoid Arthritis Rat Model” (J Med Chem, 2019)
